# Measured values as given in patent publication US7998987B2, “Inhibitors of c-Met and uses thereof” (Vertex Pharmaceuticals Incorporated, priority 2005, dated 2011).
# Where two headings read alike, the source gives them in different places.
# Target: c-Met (Homo sapiens, UniProt P08581)
# Assay: Ki determination for the inhibition of c-Met kinase activity (standard coupled enzyme system)
# Type: biochemical
# Conditions: coupled enzyme system, 200 μM ATP, 80 nM c-Met, 30° C., read-out: c-Met Ki
# Method: Ki Determination for the Inhibition of c-Met
# Reactions were carried out in a solution containing 100 mM HEPES (pH 7.5), 10 mM MgCl2, 25 mM NaCl, 300 μM NADH, 1 mM DTT, and 1.5% DMSO. Final substrate concentrations in the assay were 200 μM ATP (Sigma Chemicals, St Louis, Mo.) and 10 μM polyGluTyr (Sigma Chemical Company, St. Louis). Reactions were carried out at 30° C. and 80 nM c-Met. Final concentrations of the components of the coupled enzyme system were 2.5 mM phosphoenolpyruvate, 300 μM NADH, 30 μg/ml pyruvate kinase and 10 μg/ml lactate dehydrogenase.
# An assay stock buffer solution was prepared containing all of the reagents listed above with the exception of ATP and a test compound of the present invention. […] The reaction was initiated by the addition of 20 μL of ATP (final concentration 200 μM). Rates of reaction were obtained using a Molecular Devices Spectramax plate reader (Sunnyvale, Calif.) over 10 minutes at 30° C. The Ki values were determined from the rate data as a function of inhibitor concentration.
# c-Met, sequence (P08581 25-1390): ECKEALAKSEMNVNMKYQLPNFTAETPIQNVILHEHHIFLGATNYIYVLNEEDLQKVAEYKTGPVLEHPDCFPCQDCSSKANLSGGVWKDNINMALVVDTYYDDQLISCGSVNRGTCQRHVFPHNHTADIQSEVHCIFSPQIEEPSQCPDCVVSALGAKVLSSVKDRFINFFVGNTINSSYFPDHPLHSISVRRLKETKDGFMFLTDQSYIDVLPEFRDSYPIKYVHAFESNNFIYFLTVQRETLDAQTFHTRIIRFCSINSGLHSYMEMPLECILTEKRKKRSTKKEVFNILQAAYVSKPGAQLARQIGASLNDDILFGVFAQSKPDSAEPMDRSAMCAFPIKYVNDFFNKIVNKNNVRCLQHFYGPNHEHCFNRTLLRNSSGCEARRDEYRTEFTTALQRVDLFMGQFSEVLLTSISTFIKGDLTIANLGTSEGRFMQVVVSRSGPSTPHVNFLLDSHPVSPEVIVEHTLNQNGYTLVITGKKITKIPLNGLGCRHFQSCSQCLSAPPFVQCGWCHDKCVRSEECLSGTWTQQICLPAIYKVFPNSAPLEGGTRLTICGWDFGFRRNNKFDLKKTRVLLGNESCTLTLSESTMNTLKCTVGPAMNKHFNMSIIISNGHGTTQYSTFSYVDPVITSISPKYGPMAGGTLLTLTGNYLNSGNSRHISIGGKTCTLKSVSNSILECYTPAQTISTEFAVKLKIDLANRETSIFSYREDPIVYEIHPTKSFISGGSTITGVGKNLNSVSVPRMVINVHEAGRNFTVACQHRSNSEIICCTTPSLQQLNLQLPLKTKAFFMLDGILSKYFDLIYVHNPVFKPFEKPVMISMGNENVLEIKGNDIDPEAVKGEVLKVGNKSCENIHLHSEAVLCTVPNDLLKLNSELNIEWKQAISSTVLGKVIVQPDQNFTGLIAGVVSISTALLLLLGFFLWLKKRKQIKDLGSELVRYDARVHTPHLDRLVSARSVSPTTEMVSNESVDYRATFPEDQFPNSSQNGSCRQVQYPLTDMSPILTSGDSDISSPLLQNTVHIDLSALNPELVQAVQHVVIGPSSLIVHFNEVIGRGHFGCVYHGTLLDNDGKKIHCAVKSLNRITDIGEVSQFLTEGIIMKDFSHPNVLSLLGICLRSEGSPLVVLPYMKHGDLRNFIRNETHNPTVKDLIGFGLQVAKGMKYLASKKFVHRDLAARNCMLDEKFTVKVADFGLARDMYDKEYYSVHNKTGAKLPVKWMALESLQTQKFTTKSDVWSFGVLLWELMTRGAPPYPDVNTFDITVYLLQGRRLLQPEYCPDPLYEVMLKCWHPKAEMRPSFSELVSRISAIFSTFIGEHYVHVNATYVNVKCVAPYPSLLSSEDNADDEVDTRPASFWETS
Compound,Ki [nM],Ki (10 μM polyGluTyr) [nM],also measured
Clc1cccc(Nc2ccc3nnc(COc4ccc(Cl)nc4)n3n2)c1 [Compound 375],> 2000,,
OCCc1cccc(Nc2ccc3nnc(Cc4ccc(O)c(F)c4)n3n2)c1 [Compound 265],,100 to 2000,
COc1ccc(CNc2ccc3nnc(Cc4ccc(O)cc4)n3n2)cc1 [Compound 267],,100 to 2000,
Oc1ccc(Cc2nnc3sc(Nc4cccc(F)c4F)nn23)cc1Cl [Compound 128],,< 100,
Fc1ccc(SCc2nnc3ccc(Nc4cccc(Cl)c4)nn23)c(F)c1 [Compound 405],> 2000,,
Cc1cccc(Nc2nn3c(Cc4ccc(O)cc4)nnc3s2)c1 [Compound 44],,< 100,
Clc1cccc(Nc2ccc3nnc(CSc4ccccc4Cl)n3n2)c1 [Compound 389],> 2000,,
Clc1cccc(Nc2ccc3nnc(CNc4ncccn4)n3n2)c1 [Compound 414],> 2000,,
CCC(c1ccc(O)cc1)c1nnc2ccc(Nc3cccc(Cl)c3)nn12 (centres unmarked) [Compound 367],< 100,,
Fc1ccc(Cc2nnc3n2N=C(c2ccccc2)CS3)cc1 [Compound 527],> 2000,,
CNc1nn2c(Cc3ccc(O)cc3)nnc2s1 [Compound 14],,100 to 2000,
Oc1ccc(Cc2nnc3ccc(NCc4cccc(F)c4)nn23)cc1 [Compound 268],,100 to 2000,
Oc1ccc(Cc2nnc3sc(Nc4cccc(Cl)c4F)nn23)cc1F [Compound 130],,100 to 2000,
Oc1ccc(Cc2nnc3ccc(N4CCCC4c4ccc(F)cc4)nn23)cc1 (centres unmarked) [Compound 202],,> 2000,
Oc1ccc(Cc2nnc3sc(Nc4cccc(F)c4)nn23)cc1Cl [Compound 97],,< 100,
C[C@@H](c1ccc(O)cc1)c1nnc2ccc(Sc3nc[nH]n3)nn12 [Compound 508],100 to 2000,,
Clc1cccc(Nc2ccc3nnc(COc4ccccn4)n3n2)c1 [Compound 373],> 2000,,
Oc1ccc(Cc2nnc3ccc(N[C@@H]4CCOC4)nn23)cc1 [Compound 274],,100 to 2000,
COc1cccc(Nc2ccc3nnc(Cc4ccncc4)n3n2)c1 [Compound 244],,> 2000,

Compound,Ki [nM],Ki (10 μM polyGluTyr) [nM],also measured
Cc1cccc(SCc2nnc3ccc(Nc4cccc(Cl)c4)nn23)c1 [Compound 388],> 2000,,
COc1ccc(C2(c3nnc4ccc(Nc5cccc(Cl)c5)nn34)CC2)cc1 [Compound 356],,,Ki (number printed instead of class symbol): 100 nM
Fc1ccc(Cc2nnc3sc(Nc4cccc(Cl)c4)nn23)cc1 [Compound 171],,< 100,
Oc1ccc(NCc2nnc3ccc(Nc4cccc(Cl)c4)nn23)c2cccnc12 [Compound 352],> 2000,,
CCC(CC)Nc1ccc2nnc(Cc3ccc(O)cc3)n2n1 [Compound 281],,100 to 2000,
Nc1nn2c(Cc3ccc(OCc4ccccc4)cc3)nnc2s1 [Compound 1],,> 2000,
Cc1cc(C)cc(Nc2ccc3nnc(Cc4ccc(O)cc4)n3n2)c1 [Compound 295],< 100,,
Oc1cccc(CCc2nnc3sc(Nc4cccc(F)c4)nn23)c1 [Compound 95],,> 2000,
CC(c1ccc(F)cc1)c1nnc2ccc(Nc3cccc(Cl)c3)nn12 (centres unmarked) [Compound 493],< 100,,
Clc1cccc(Nc2ccc3nnc(COc4ccc5cccnc5c4)n3n2)c1 [Compound 423],< 100,,
CC(Oc1ccc2cccnc2c1)c1nnc2sc(Nc3cccc(Cl)c3)nn12 (centres unmarked) [Compound 164],,> 2000,
Cc1ccc(F)cc1Nc1nn2c(Cc3ccc(O)cc3)nnc2s1 [Compound 75],,< 100,
C[C@@H](c1ccc(O)c(C(C)(C)C)c1)c1nnc2sc(Nc3cccc(F)c3)nn12 [Compound 172],,100 to 2000,
Oc1ccc(Cc2nnc3ccc(NC4CCOCC4)nn23)cc1 [Compound 318],100 to 2000,,
OCCc1cccc(Nc2ccc3nnc(Cc4ccc(O)c(Cl)c4)n3n2)c1 [Compound 300],100 to 2000,,
CC(C)[C@@H](N)C(=O)Oc1ccc([C@H](C)c2nnc3sc(Nc4cccc(Cl)c4)nn23)cc1 [Compound 168],,< 100,
O=C(N[C@@H](Cc1ccccc1)C1=Nn2c(Cc3ccc(O)cc3)nnc2SC1)OCc1ccccc1 [Compound 537],> 2000,,
COc1ccc(Cc2nnc3ccc(Nc4cccc(CO)c4)nn23)cc1 [Compound 262],,100 to 2000,
Nc1cc(OCc2nnc3ccc(Nc4cccc(Cl)c4)nn23)c2ccccc2n1 [Compound 466],> 2000,,

Compound,Ki [nM],Ki (10 μM polyGluTyr) [nM],also measured
COC(=O)c1c(O)cccc1NCc1nnc2ccc(Nc3cccc(Cl)c3)nn12 [Compound 332],100 to 2000,,
Clc1cccc(Nc2ccc3nnc(COc4cccc(Cl)c4)n3n2)c1 [Compound 384],> 2000,,
COc1cc(Cc2nnc3ccc(Nc4cccc(Cl)c4)nn23)ccc1O [Compound 442],< 100,,
COc1cccc(Nc2nn3c(Cc4ccc5c(c4)OCO5)nnc3s2)c1 [Compound 34],,100 to 2000,
Oc1c(Cc2nnc3ccc(Nc4cccc(Cl)c4)nn23)cnc2ncnn12 [Compound 516],> 2000,,
CC(c1ccc(O)cc1)c1nnc2sc(Nc3ccc(Cl)cc3)nn12 (centres unmarked) [Compound 53],,< 100,
Oc1ccc(Cc2nnc3sc(Nc4ccc(-n5cccn5)cc4)nn23)cc1 [Compound 71],,< 100,
Cc1nnc(Nc2ccc3nnc([C@@H](C)c4ccc(O)cc4)n3n2)s1 [Compound 500],> 2000,,
COc1cccc(NCc2nnc3ccc(Nc4cccc(Cl)c4)nn23)c1 [Compound 336],100 to 2000,,
CC(C)C[C@H](NC(=O)OCc1ccccc1)C1=Nn2c(Cc3ccc(O)cc3)nnc2SC1 [Compound 532],> 2000,,
COc1ccc(Nc2nn3c(Cc4ccc5c(c4)OCO5)nnc3s2)cc1 [Compound 65],,100 to 2000,
C[C@@H](c1ccc(O)cc1)c1nnc2sc(Nc3cccc(Cl)c3)nn12 [Compound 116],,< 100,
Oc1ccc(Cc2nnc3ccc(NC4CCN(Cc5ccccc5)C4)nn23)cc1 (centres unmarked) [Compound 273],,100 to 2000,
COc1ccc(Cc2nnc3ccc(Nc4cccc(CCO)c4)nn23)cc1 [Compound 266],,100 to 2000,
OCc1cccc(Nc2ccc3nnc(Cc4ccc(O)c(Cl)c4)n3n2)c1 [Compound 261],,100 to 2000,
Cc1cccc(Nc2ccc3nnc(Cc4ccncc4)n3n2)c1 [Compound 231],,> 2000,
Oc1ccc(Cc2nnc3ccc(NC4CC5CCC4C5)nn23)cc1 (centres unmarked) [Compound 275],,< 100,
Oc1ccc(CCc2nnc3sc(Nc4cc(F)cc(F)c4)nn23)cc1 [Compound 111],,100 to 2000,

# Continued, in another order:
Ki [nM],Ki (10 μM polyGluTyr) [nM],Compound,also measured
,100 to 2000,COc1ccc(Nc2nn3c(Cc4ccc(O)c(Cl)c4)nnc3s2)cc1 [Compound 39],
,> 2000,CC(=O)Nc1ccc(NCc2nnc3ccc(-c4ccccc4)nn23)cc1 [Compound 209],
100 to 2000,,C[C@@H](c1ccc(O)cc1)c1nnc2ccc(Nc3ccc(Cl)nc3)nn12 [Compound 514],
,100 to 2000,"c1csc(-c2nn3c(Cc4ccc5c(c4)OCO5)nnc3s2)c1 [Compound 2, 3-((benzo[d][1,3]dioxol-5-yl)methyl)-6-(thiophen-2-yl)-[1,2,4]triazolo[3,4-b][1,3,4]thiadiazole]",
,100 to 2000,CCCC(C)Nc1ccc2nnc(Cc3ccc(O)cc3)n2n1 (centres unmarked) [Compound 280],
,< 100,C[C@H](c1ccc(O)cc1)c1nnc2sc(Nc3cccc(F)c3)nn12 [Compound 106],
100 to 2000,,Clc1cccc(Nc2ccc3nnc(COc4cccnc4)n3n2)c1 [Compound 371],
100 to 2000,,C[C@@H](Nc1ccc2nnc(Cc3ccc(O)cc3)n2n1)c1ccccc1 [Compound 313],
> 2000,,NC(=O)c1ncccc1OCc1nnc2ccc(Nc3cccc(Cl)c3)nn12 [Compound 478],
> 2000,,CC(=O)N[C@H]1CCCC[C@@H]1Nc1ccc2nnc([C@@H](C)c3ccc(O)cc3)n2n1 [Compound 448],
,> 2000,COCC1CCCN1c1nn2c(Cc3ccc(OC)cc3)nnc2s1 (centres unmarked) [Compound 12],
,100 to 2000,Oc1ccc(Cc2nnc3ccc(NCc4ccccc4)nn23)cc1 [Compound 277],
> 2000,,Oc1ccccc1SCc1nnc2ccc(Nc3cccc(Cl)c3)nn12 [Compound 406],
100 to 2000,,Oc1ccc(OCc2nnc3ccc(Nc4cccc(Cl)c4)nn23)cc1 [Compound 391],
> 2000,,C[C@@H](c1ccc(O)cc1)c1nnc2ccc(Sc3ncc[nH]3)nn12 [Compound 511],
100 to 2000,,Oc1ccc(Cc2nnc3n2N=C(c2ccncc2)CS3)cc1 [Compound 538],
,100 to 2000,COc1cccc(Nc2ccc3nnc(Cc4ccc5c(c4)OCO5)n3n2)c1 [Compound 243],
< 100,,COc1ccc(Cc2nnc3ccc(Nc4cccc(C#N)c4)nn23)cc1 [Compound 287],
100 to 2000,,C[C@@H](c1ccc(O)cc1)c1nnc2ccc(Nc3ccc(Cl)nn3)nn12 [Compound 512],
< 100,,Fc1ccc(Cl)cc1Nc1ccc2nnc(Cc3ccc4c(c3)OCO4)n2n1 [Compound 362],
,100 to 2000,COc1ccc(Cc2nnc3sc(-c4ccccn4)nn23)cc1 [Compound 20],
,< 100,Oc1ccc(Cc2nnc3sc(Nc4ccccc4Cl)nn23)cc1 [Compound 78],
< 100,,COc1ccc(Cc2nnc3ccc(Nc4cccc(Cl)c4)nn23)c(Cl)c1 [Compound 440],
< 100,,CCc1cccc(Nc2ccc3nnc(Cc4ccc(O)cc4)n3n2)c1 [Compound 288],
> 2000,,Fc1ccc(SCc2nnc3ccc(Nc4cccc(Cl)c4)nn23)cc1 [Compound 390],
> 2000,,Nc1cc(F)ccc1OCc1nnc2ccc(Nc3cccc(Cl)c3)nn12 [Compound 432],
,100 to 2000,Oc1ccc(Cc2nnc3ccc(NCC4CCCO4)nn23)cc1 (centres unmarked) [Compound 187],
